Data on six compounds can be found in patent US3998790A, “Phenoxy-hydroxypropylamines, their preparation, and method and pharmaceutical preparations for treating cardiovascular diseases” (priority 1974, dated 1976).

Where two headings read alike, the source gives them in different places.

One data set deals with T1, β-receptors of the heart (Felis catus, UniProt Q9TST6).
T1 construct: Intravenously injected isoprenaline increased the heart rate and reduced the perfusion pressure; from tissue; host or cells: heart of the intact anaesthetized, reserpinized, vagotomized cat (in vivo)
T1 sequence (Q9TST6 whole entry, the tested form may be a part): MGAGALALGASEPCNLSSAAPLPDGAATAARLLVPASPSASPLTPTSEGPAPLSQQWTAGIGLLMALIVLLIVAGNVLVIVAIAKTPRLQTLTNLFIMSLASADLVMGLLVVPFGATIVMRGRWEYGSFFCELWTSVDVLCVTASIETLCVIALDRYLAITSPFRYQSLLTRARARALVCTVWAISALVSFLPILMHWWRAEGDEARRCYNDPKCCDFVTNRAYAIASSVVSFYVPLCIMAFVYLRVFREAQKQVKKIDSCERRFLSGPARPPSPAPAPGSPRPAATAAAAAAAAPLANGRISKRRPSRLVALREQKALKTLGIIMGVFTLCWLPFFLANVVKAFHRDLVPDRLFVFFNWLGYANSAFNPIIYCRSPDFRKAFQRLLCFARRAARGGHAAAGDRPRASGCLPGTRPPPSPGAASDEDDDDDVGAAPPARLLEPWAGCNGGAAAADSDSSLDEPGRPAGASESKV
The data set is described as follows: β-blocking activity on heart rate (isoprenaline response) in reserpinized cats. Format: in vivo, cat. The conditions noted are these: read-out: β-blockade Heart rate ED50. How it is done: (§1) The acute LD50 in mice was evaluated. Alprenolol was used as a reference substance.
(§2) Cats weighing between 1.8 and 2.8 kg were anaesthetized with 30 mg/kg pentobarbital sodium, intraperitoneally. The cats had been pretreated with reserpine, 5 mg/kg intramuscular, about 18 hours before the experiment. Bilateral vagotomy was performed before the start of the experiment.
(§3) The heart rate was recorded on an Offner cardiotachometer triggered by the EKG-complex. Mean arterial blood pressure was recorded from a carotid artery. The peripheral resistance was measured in one of the legs of the cat in the following way: The femoral artery was opened in the inguinal region and the leg was perfused by blood delivered through a sigma motor pump at constant rate. The flow resistance (the pressure) was recorded via a pressure transudcer connected to the catheter distally to the pump. The paw was excluded from the circulation by a tight ligature Intravenously injected isoprenaline increased the heart rate and reduced the perfusion pressure. An isoprenaline dose giving 70-80% of the maximal chronotropic response was determined. This dose (usually 0.1 μg/kg) was then repeated with 20 minute intervals. Ten minutes before each isoprenaline injection, the tested substances were administered intravenously for two minutes, starting with a dose of 0.01 mg/kg and increasing each subsequent dose fourfold. The intrinsic effects of the test substances were determined. The dose producing 50% blockade of the isoprenaline responses was evaluated from the plotted log dose-percent blockade diagrams.

Another data set is described as follows: in vivo. The conditions noted are these: mouse, ip. How it is done: (§4) Compounds prepared according to the examples were evaluated for intrinsic activity and blocking effect on heart rate and: peripheral vasodilator response to isoprenaline in the cat. The acute LD50 in mice was evaluated.
Another data set deals with heart rate. The data set can be described thus: intrinsic stimulating activity on heart rate in reserpinized cats. The conditions noted are these: Felis catus, read-out: Intrinsic activity % of maximal isoprenaline heart rate. The data set is classed as in vivo, cat. The method, then:
as §4, §2
as §3, with “The paw was excluded from the circulation by a tight ligature Intravenously injected isoprenaline increased the heart rate and reduced the perfusion pressure.” left out, “This dose (usually 0.1 μg/kg) was then repeated with 20 minute intervals.” left out

Data set [1] has as its target T2, peripheral vascular β-receptors (Felis catus, UniProt Q9TST5).
T2 construct: from tissue; host or cells: vascular bed of the perfused leg of the anaesthetized, reserpinized cat, paw excluded (in vivo)
The data set is described as follows: β-blocking activity on peripheral vascular resistance (vasodilator response to isoprenaline) in reserpinized cats. Format: in vivo, cat. The conditions noted are these: read-out: β-blockade peripheral vascular resistance ED50. The method, then:
as §1, §2, §3

Setting [2] is: reserpinized cat, intravenous, dose producing 50% blockade of isoprenaline response.
The mark [3] stands for this setting: reserpinized cat, pentobarbital anaesthesia, intravenous.

One may read the ED50 as the dose at which the effect has come halfway, by size or by number of responders. The term LD50 denotes the dose expected to kill half of the subjects tested. A lower LD50 goes with greater toxicity.

T2 sequence (Q9TST5 whole entry, the tested form may be a part): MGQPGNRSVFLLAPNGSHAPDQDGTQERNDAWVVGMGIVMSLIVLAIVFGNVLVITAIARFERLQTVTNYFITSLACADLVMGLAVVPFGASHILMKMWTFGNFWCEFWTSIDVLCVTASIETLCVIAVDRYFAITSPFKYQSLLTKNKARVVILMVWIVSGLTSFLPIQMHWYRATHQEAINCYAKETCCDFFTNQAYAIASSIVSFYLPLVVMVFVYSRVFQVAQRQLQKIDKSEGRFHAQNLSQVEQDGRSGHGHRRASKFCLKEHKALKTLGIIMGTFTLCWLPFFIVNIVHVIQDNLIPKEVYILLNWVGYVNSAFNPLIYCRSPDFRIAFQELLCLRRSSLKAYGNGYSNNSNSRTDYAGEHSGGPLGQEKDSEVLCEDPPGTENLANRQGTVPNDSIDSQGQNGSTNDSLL

As for `CCOC(=O)NCCc1ccc(OCC(O)CNC(C)C)cc1` (centres unmarked), the ED50 stood at 0.3 mg/kg at β-receptors of the heart (setting [2]) and 25 mg/kg in data set [1] (setting [2]). Also, the LD50 in the data set “in vivo” was 200 mg/kg. Also, the Emax in the data set with heart rate (iv) turned out to be 0%.

Take `COCCc1ccc(OCC(O)CNC(C)C)cc1` (stereo not drawn) [Ex. I, 1-isopropylamino-3-[p-(β-methoxyethyl)-phenoxy]-propanol-2]: the 50% effective dose (ED50) on β-receptors of the heart (cat, iv) worked out at 0.4 mg/kg; in data set [1] (cat, iv) it was 3 mg/kg. The compound also came in with an LD50 in “in vivo” of 200 mg/kg. In addition, the Emax in the data set with heart rate (setting [3]) turned out to be 0%.

As to `CCOCc1ccc(OCC(O)CNC(C)C)cc1` (centres unmarked) [Ex. III, 1-isopropylamino-3-(p-ethoxymethyl-phenoxy)-propanol-2], the ED50 at β-receptors of the heart (setting [2]) came to 0.4 mg/kg; in data set [1] (setting [2]) it was 6 mg/kg. The compound further gave an LD50 in the data set “in vivo” of 175 mg/kg. For the same compound, the Emax in the data set on heart rate (setting [3]) stood at 0%.

For `CCOCCc1ccc(OCC(O)CNC(C)C)cc1` (stereo not drawn) [Ex. II, 1-isopropylamino-3-[p-(β-ethoxyethyl)-phenoxy]-propanol-2], the figures for the ED50 (on β-receptors of the heart (setting [2]); in data set [1] (setting [2])) were 0.3 mg/kg and 4 mg/kg, respectively. Further, the LD50 in the data set “in vivo” worked out at 150 mg/kg. Besides, the Emax in the data set with heart rate (setting [3]) was found to be 0%.

As for `COC(=O)NCCc1ccc(OCC(O)CNC(C)C)cc1` (centres unmarked) [(no label)], the ED50 on β-receptors of the heart (setting [2]) was found to be 0.4 mg/kg; in data set [1] (setting [2]), 19 mg/kg. For the same compound, the LD50 in “in vivo” worked out at 125 mg/kg. The Emax in the data set on heart rate (iv) worked out at 0%.

For `C=CCc1ccccc1OCC(O)CNC(C)C` (centres unmarked) [alprenolol, reference compound], the median effective dose (ED50) at β-receptors of the heart (cat, iv) was 0.1 mg/kg; in data set [1] (cat, iv) it was 0.05 mg/kg. In addition, the Emax in the data set on heart rate (setting [3]) came out at 20%.
